Experimental data as given in patent US20230330064A1, “TYROSINE, TRYPTOPHAN AND PHENYLALANINE AS mTOR AGONISTS MEDIATING PROTEASOME DYNAMICS, COMPOSITIONS, METHODS AND USES THEREOF IN THERAPY, AND PROGNOSTIC METHODS FOR DRUG-RESISTANCE” (Technion Research & Development Foundation Limited, priority 2020, published 2023).

Columns and labels:
MCF-7 = conditions: cited from earlier work
tumors = assay: Tumor model in mice, YWF versus various concentrations of F; type: in vivo; conditions: various concentrations up to 45 mM
Description: The anti-tumorigenic effect of the indicated treatments was examined in vivo, using a tumor model in mice.
The inventors next aimed to assess the anti-tumorigenic effect of the above treatments in vivo, using a tumor model in mice. Following tumor formation, each group was treated with a different treatment, and the size of tumors was eventually compared relative to the control group (QLR).

cancer cells = assay: Cell viability of stressed (starved) and non-stressed cancer cells, YWF versus 45 mM F or W
Description: Since tumor cells are inherently stressed—due to high metabolic demands and poor perfusion of nutrients and oxygen, starved cells in culture were used in order to simulate the effect of the different treatments. Similarly, to simulation of the effect of each treatment on “normal” tissues in vivo—which are not stressed—the same amino acid(s) were added to non-starved cells in culture.

26S proteasome = assay: Proteasome subcellular localization in cultured cells (immunofluorescence, western blot of nuclear fractions); type: cell-based; conditions: substance added to amino acid starvation medium, 8 h
Description: Cells were seeded on glass cover slips for 36 h. Following the indicated treatments, they were fixed with 4% PFA for 15 min, washed with (phosphate-buffered saline) PBS and incubated in PBS containing 10% goat serum for 1h at room temperature, followed by 2 h incubation with the indicated primary antibody. Following extensive wash with PBS, the fixed cells were incubated with the relevant secondary antibody for 1 h, washed and mounted. Images were acquired using Zeiss LSM 700 confocal microscope (Zeiss, Oberkochen, Germany).
The proteasome subunits α6, β1, and PSMD1 were visualized via indirect immunofluorescence, using primary and secondary antibodies listed under Key Resources Table. To observe the proteasome in live cells, we expressed the cDNAs of the β4, Rpn2, Rpn6, and Rpn13 proteasome subunits C-terminally fused with GFP. Photoconversion of proteasome-fused Dendra2 was carried out as previously described (McKinney et al., 2009 Nat Methods. 131-133).
Cells were incubated for 20 min in fractionation buffer [20 mM HEPES pH 7.3, 10 mM KCl, 5 mM ATP, 5 mM MgCl2, and protease inhibitor cocktail (Roche)], followed by the addition of NP-40 (to 0.1%). They were then mixed thoroughly and centrifuged at 1,000×g for 5 min. The supernatant was collected as cytosolic fraction, and the pellet (nuclei) was washed twice with PBS. To dissolve the nuclear pellet, fractionation buffer supplemented with 0.5% sodium deoxycholate was added followed by sonication.
Cells were washed twice with ice cold PBS and scraped into lysis buffer (50 mM Tris-HCl, pH 7.4, 130 mM NaCl, 0.5% NP-40) supplemented with freshly added protease inhibitor cocktail, 5 mM ATP, 10 mM iodoacetamide, and 5 mM N-ethyl maleimide. Protein concentration was measured by the BCA assay according to the manufacturer's instructions (Pierce, Rockford, IL). 30 μg of cellular protein were resolved via SDS-PAGE, transferred to a nitrocellulose membrane and immunoblotted with the appropriate antibody.

Row | SMILES | growth of MCF-7 cells (MCF-7) | benefit on tumor growth relative to control group (QLR) (tumors) | elimination of stressed cancerous cells in culture (cancer cells) | starvation-induced proteasome translocation from the nucleus to the cytosol (26S proteasome)
1 | N[C@@H](Cc1c[nH]c2cccc(F)c12)C(=O)O [L-(4-F) Trp] | completely inhibited the growth | – | – | –
2 | N[C@@H](Cc1ccccc1)C(=O)O [Phe, Phenylalanine] | – | did not result in any benefit | clearly inferior to the mixture of YWF | significant effect
